The structures appear in SMILES notation. Structures can show the parent of a compound that is named as a salt. A value given as a limit tells only on which side of the number the result lay.

For one data set, the target named is rabbit GSK-3β (Oryctolagus cuniculus, UniProt G1T8E2). Put plainly: GSK-3β-inhibitory activity (phosphorylation of CREB phosphopeptide, [γ-32P]ATP, scintillation counting). Conditions: rabbit GSK-3β (0.5 unit), 30° C. for 20 minutes, Table 1. It counts as biochemical. The procedure:
CREB phosphopeptide ([…]), rabbit GSK-3β (0.5 unit), ATP ([…]), [γ-^32P]ATP (12.3 kBq) and a test compound were reacted in a GSK-3β buffer solution (25 μL) (20 mmol/L Tris-HCl (pH 7.5), 10 mmol/L magnesium chloride, 5 mmol/L dithiothreitol) containing 1% dimethyl sulfoxide, at 30° C. for 20 minutes. The reaction product (10 μL) was adsorbed on a P81 ion-exchange paper, and the paper was washed with phosphoric acid (100 mmol/L) and measured for cpm on a scintillation counter.
CREB Phosphopeptide is Lys-Arg-Arg-Glu-Ile-Leu-Ser-Arg-Arg-Pro-Ser(P)-Tyr-Arg.

Sequence of rabbit GSK-3β (G1T8E2 1-432): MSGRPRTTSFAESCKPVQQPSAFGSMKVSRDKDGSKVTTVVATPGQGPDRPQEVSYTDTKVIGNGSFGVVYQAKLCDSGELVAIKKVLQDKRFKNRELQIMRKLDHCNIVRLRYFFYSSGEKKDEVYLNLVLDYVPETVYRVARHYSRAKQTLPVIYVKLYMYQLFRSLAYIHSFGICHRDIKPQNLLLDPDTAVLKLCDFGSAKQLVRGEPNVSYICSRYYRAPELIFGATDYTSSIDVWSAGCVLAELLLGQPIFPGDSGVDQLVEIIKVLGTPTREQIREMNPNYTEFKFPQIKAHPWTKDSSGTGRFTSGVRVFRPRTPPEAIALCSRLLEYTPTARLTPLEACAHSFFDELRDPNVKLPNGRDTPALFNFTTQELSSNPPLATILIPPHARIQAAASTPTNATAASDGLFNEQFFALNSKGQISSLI

By IC50 is commonly meant the concentration needed to halve the response being measured. Read a low IC50 as higher potency. At rabbit GSK-3β, `CN1CCC(C2=C(C#N)C(c3cccc4nonc34)c3c[nH]nc3N2)CC1` (centres unmarked) [Example 1003, 4-(2,1,3-Benzoxadiazol-4-yl)-5-cyano-4,7-dihydro-6-(1-methylpiperidin-4-yl)-2H-pyrazolo[3,4-b]pyridine] gave an IC50 of 2.5 nM.
The same measure, in the same setting: to `N#CC1=C(C2CCCCN2)Nc2n[nH]cc2C1c1cccc2nonc12` (centres unmarked) [Example 1008, 4-(2,1,3-Benzoxadiazol-4-yl)-5-cyano-4,7-dihydro-6-(piperidin-2-yl)-2H-pyrazolo[3,4-b]pyridine] belongs 3.7 nM.
Usually melting point stands for the temperature, or range, at which the solid turns liquid. Molecule `CC(=O)CC1=C(C#N)C(c2cccc(C#N)c2Br)c2c[nH]nc2N1` (centres unmarked) [Example 1063, 6-Acetylmethyl-4-(2-bromo-3-cyanophenyl)-5-cyano-4,7-dihydro-2H-pyrazolo[3,4-b]pyridine] gave a melting point of 230 °C. The IC50 on rabbit GSK-3β is 3 nM.
Regarding `CN1CCOC(C2=C(C#N)C(c3cccc4nonc34)c3c[nH]nc3N2)C1` (centres unmarked) [Example 1011, 4-(2,1,3-Benzoxadiazol-4-yl)-5-cyano-4,7-dihydro-6-(4-methylmorpholin-2-yl)-2H-pyrazolo[3,4-b]pyridine], inhibition at rabbit GSK-3β was half-maximal at 14 nM (IC50).
Same read-out and setting: under `N#CC1=C([C@@H]2C[C@H]3CC[C@@H]2NC3)Nc2n[nH]cc2C1c1cccc(C#N)c1Br` (stereo partly drawn) [Example 1146, 6-(exo-2-Azabicyclo[2,2,2]octan-6-yl)-4-(2-bromo-3-cyanophenyl)-5-cyano-4,7-dihydro-2H-pyrazolo[3,4-b]pyridine 2 Hydrochloride] stands 0.61 nM; under `CN(C)C1CCC(C2=C(C#N)C(c3cccc4nonc34)c3c[nH]nc3N2)CC1` (centres unmarked) [Example 1023, 4-(2,1,3-Benzoxadiazol-4-yl)-5-cyano-4,7-dihydro-6-(4-(N,N-dimethylamino)cyclohexyl)-2H-pyrazolo[3,4-b]pyridine], 4.1 nM.
In turn, `CNC(C)C1=C(C#N)C(c2cccc(C#N)c2Br)c2c[nH]nc2N1` (centres unmarked) [Example 1155, 4-(2-Bromo-3-cyanophenyl)-5-cyano-4,7-dihydro-6-(1-(methylamino)ethyl)-2H-pyrazolo[3,4-b]pyridine 2 Hydrochloride] displayed an IC50 against rabbit GSK-3β of 2.2 nM. Compared with the last molecule, the IC50 is about 1.9-fold lower.
The same measure, in the same setting: to `CN1C[C@@H]2CC[C@H]1[C@H](C1=C(C#N)C(c3cccc(C#N)c3Br)c3c[nH]nc3N1)C2` (stereo partly drawn) [Example 1148, 4-(2-Bromo-3-cyanophenyl)-5-cyano-4,7-dihydro-6-(exo-2-methyl-2-azabicyclo[2,2,2]octan-6-yl)-2H-pyrazolo[3,4-b]pyridine] belongs 3.2 nM.
The molecule `N#CC1=C(C2CCNCC2)Nc2n[nH]cc2C1c1cccc2nonc12` (centres unmarked) [Example 1002, 4-(2,1,3-Benzoxadiazol-4-yl)-5-cyano-4,7-dihydro-6-(piperidin-4-yl)-2H-pyrazolo[3,4-b]pyridine] displayed a melting point of 216 °C. On rabbit GSK-3β, the concentration for half-maximal inhibition (IC50) came out at 10 nM.
`CCCC1=C(c2nnc(C)o2)C(c2cccc(C#N)c2Br)c2c[nH]nc2N1` (centres unmarked) [Example 1158, 4-(2-Bromo-3-cyanophenyl)-4,7-dihydro-5-(5-methyl-1,3,4-oxadiazol-2-yl)-6-propyl-2H-pyrazolo[3,4-b]pyridine]: the midpoint of inhibition against rabbit GSK-3β, the IC50, lay at 0.65 nM.
As for `N#CC1=C(C2CCCCC2=O)Nc2n[nH]cc2C1c1cccc2nonc12` (centres unmarked) [Example 1058, 4-(2,1,3-Benzoxadiazol-4-yl)-5-cyano-4,7-dihydro-6-(2-oxocyclohexan-1-yl)-2H-pyrazolo[3,4-b]pyridine], the midpoint of inhibition against rabbit GSK-3β, the IC50, lay at 1.8 nM. Compared with the last molecule, the IC50 is about 2.8-fold higher.
Consider `CCC1=C(C#N)C(c2ccccc2Cl)c2c[nH]nc2N1` (centres unmarked) [Example 197, 4-(2-Chlorophenyl)-5-cyano-6-ethyl-4,7-dihydro-2H-pyrazolo[3,4-b]pyridine], for which the melting point was greater than 300 °C.
On the same count and under the same terms, under `CCCC1=C(C(=O)OCC)C(c2cccc3c2OCC=C3)c2c[nH]nc2N1` (centres unmarked) [Example 72, Ethyl 4-(2H-1-benzopyran-8-yl)-4,7-dihydro-6-propyl-2H-pyrazolo[3,4-b]pyridine-5-carboxylate] stands 194 °C; under `CCCCC1=C(C(=O)OCC)C(c2ccccc2Cl)c2c[nH]nc2N1` (centres unmarked) [Example 83, Ethyl 6-butyl-4-(2-chlorophenyl)-4,7-dihydro-2H-pyrazolo[3,4-b]pyridine-5-carboxylate], 209 °C.
Same read-out and setting: to `Cl.Cl.Cl.N#CC1=C(CN2CCN(c3cccc4ccccc34)CC2)Nc2n[nH]cc2C1c1ccccc1Cl` (centres unmarked) belongs 203 to 205 °C (dec.).

(Values after patent US6977262B2, “Dihydropyrazolopyridine compounds and pharmaceutical use thereof” (Mitsubishi Pharma Corporation, priority 2001, dated 2005).)
